Reference: paper PMC5555576, “Selective small-chemical inhibitors of protein arginine methyltransferase 5 with anti-lung cancer activity” (PLoS ONE, 2017)
Where “and” joins values, the source holds several entries; their conditions need not be identical. Equal values may be shown once.

Columns and labels:
PRMT5 = target: T1, PRMT5 (Homo sapiens, UniProt O14744); assay: Steady-state kinetic analysis of PRMT5 inhibition (time-dependent inhibition assay); assay type: biochemical
T1 construct: His6; made in house; host or cells: E. coli BL21(ED3) [sic]
T1 sequence (O14744 whole entry): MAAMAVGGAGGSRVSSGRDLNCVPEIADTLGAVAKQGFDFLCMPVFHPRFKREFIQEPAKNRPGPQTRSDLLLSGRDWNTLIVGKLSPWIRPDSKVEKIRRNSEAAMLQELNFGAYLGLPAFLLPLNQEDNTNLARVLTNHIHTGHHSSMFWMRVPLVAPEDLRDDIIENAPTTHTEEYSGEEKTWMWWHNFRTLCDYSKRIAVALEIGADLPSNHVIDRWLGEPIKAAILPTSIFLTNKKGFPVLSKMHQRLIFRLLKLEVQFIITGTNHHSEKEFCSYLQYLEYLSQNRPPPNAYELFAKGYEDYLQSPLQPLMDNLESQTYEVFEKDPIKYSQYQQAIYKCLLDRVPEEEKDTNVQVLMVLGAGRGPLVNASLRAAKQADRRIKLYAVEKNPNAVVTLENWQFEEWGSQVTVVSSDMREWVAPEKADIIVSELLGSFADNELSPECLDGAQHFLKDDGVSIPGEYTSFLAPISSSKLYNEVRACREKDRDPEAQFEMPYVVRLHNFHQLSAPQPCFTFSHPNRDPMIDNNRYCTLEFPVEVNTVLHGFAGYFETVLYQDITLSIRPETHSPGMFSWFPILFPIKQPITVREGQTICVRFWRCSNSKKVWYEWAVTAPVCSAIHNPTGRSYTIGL
Procedure: Different amounts of compound C2 or C5 were present in the final methylation reaction mixtures with 1.2 μg of PRMT5, 5 μM AdoMet, 2 μCi of H^3-AdoMet and various concentrations of SmD3. After a 10-, 20- or 30-min incubation at 30 °C or no incubation, the reaction mixtures were spread onto DE81 chromatography paper discs and the amounts of methylated products were quantified by liquid scintillation. Amounts (counts per minute [cpm]) of methylated products and incubation time (minutes) were plotted and reaction velocity (cpm per minute) was deduced.
To understand the mechanism of inhibition of identified compounds, we analyzed the kinetic pattern of inhibition using steady-state enzymatic measurements. The velocities of PRMT5 methylation of SmD3 were measured at several selected concentrations of compounds C2 and C5 over a range of SmD3 concentrations. Plotted in the double-reciprocal format with 1/velocity versus 1/[SmD3]
Fig 5 Steady-state kinetic analysis of PRMT5 inhibition by compounds C2 and C5. Double-reciprocal plot of reaction velocities (cpm per minute) versus concentrations of SmD3. Methylation reaction mixtures contained various concentrations of C2 (left) or C5 (right), various concentrations of SmD3, 1.2 μg of PRMT5 and 5 μM AdoMet. The mixtures were incubated for different times and the amounts of methylated products were quantified using DE81 paper and liquid scintillation. Reaction velocity was calculated as H^3 incorporation (cpm) into SmD3 per minute.

[1] = tested on: A549 lung tumor xenografts; assay: Orthotopic lung tumor xenograft model; assay type: in vivo, nude mice; conditions: 100 mg/kg oral gavage daily
Procedure: Six-week old nude mice were purchased from the National Cancer Institute and maintained in a barred animal facility. Cell injection into the mouse lung was performed as described previously. Mice were treated with vehicle [0.1 ml, 0.5% (w/v) carboxymethycellulose plus 0.5% Tween 80] by oral gavage or the compound dissolved in the vehicle (0.1 ml, 100 mg/kg) for 21 days. The lungs of the mice were then removed, fixed with formaldehyde and embedded in paraffin. Paraffin-embedded lung tissue sections (4 μm) were stained with H&E and evaluated for tumors. The tumor areas in lungs were quantified using the ImageJ software program (NIH).
We used the orthotopic lung tumor model to determine effects of the compound C9a on growth of lung cancer xenografts. A549 cells were injected into the lung of nude mouse as previously reported by us. Mice were randomized and divided into two groups: (a) control mice (n = 5): administration of the vehicle [0.5% (w/v) carboxymethycellulose plus 0.5% Tween 80] by oral gavage daily; (b) treated mice (n = 10): administration of the compound C9a in the vehicle at the dosage of 100 mg/kg by oral gavage daily. […]
Fig 9 The compound C9a inhibited growth of lung tumor xenografts in nude mice. […] Histones were isolated from tumors and analyzed by SDS-PAGE stained with Commassie blue R250 (bottom) or by Western blot with anti-symmetric dimethyl arginine antibody (SYM10) (top).

[2] = tested on: histone H2A arginine methylation in lung tumor xenografts; assay: Western blot of histone symmetric dimethylarginine in lung tumors; assay type: in vivo, nude mice; conditions: 100 mg/kg oral, 21 days, SYM10 antibody
Procedure: Histones were purified as reported previously. Briefly, cells (1–5 x 10^6) or lung tumors (10–100 mg) were lysated using a glass dounce in 1 ml of 1x Passive Lysis Buffer (Promega) and nuclear pellets were collected by centrifugation at 3,000 rpm for 5 min at 4 °C. The supernatant was discard and the pellets were washed with 1 ml of 1x Passive Lysis Buffer. Nuclear pellets were resuspended in 0.4 ml of the buffer (10 mM Trs-HCl, pH7.9, 0.2 mM EDTA, 1 mM DTT, 20% glycerol, 0.42 M KCl) and incubate for 30 min on ice, and centrifuged at 12,000 rpm for 10 min at 4 °C. The supernatant (histones extract) was transferred to a new tube and histones were precipitated by 20% trichloroacetic acid.
Protein extracts or histones (20 μg) were subjected to 10% or 15% sodium dodecyl sulfate-polyacrylamide gel electrophoresis, respectively then transferred to Immobilon-P membranes (Millipore). […] Immunoreactive proteins were detected using an enhanced chemiluminescence detection system (GE Healthcare) per the manufacturer’s instructions. Protein concentrations were determined using the Bradford protein assay reagent (Bio-Rad).
Fig 9 The compound C9a inhibited growth of lung tumor xenografts in nude mice. […] Histones were isolated from tumors and analyzed by SDS-PAGE stained with Commassie blue R250 (bottom) or by Western blot with anti-symmetric dimethyl arginine antibody (SYM10) (top). […]

[3] = tested on: PRMT5-target genes in A549 cells; assay: Real-time PCR of PRMT5-regulated genes; assay type: cell-based; conditions: 50 μM, 24 hrs
Procedure: We identified a set of genes whose expression was altered by silencing PRMT5 expression in lung cancer A549 cells. A549 cells were treated with C9a and EPZ015666 and expression of 6 identified PRMT5-regulated genes was analyzed. […] The future study would use genome-wide approach to determine genes whose expression is affected by PRMT5 inhibitors.
Supplementary file pone.0181601.s005.tif: S5 Fig PRMT5 inhibitors selectively affect PRMT5-target genes in lung cancer cells. RNAs were isolated from cells cultured in the presence of DMSO, EPZ015666 (Sigma-Aldrich) (50 μM), or C9a (50 μM) for 24 hrs and submitted to RT-RCR analysis of gene expression in cancer cell lines. Relative mRNA levels = mRNA in cells treated with PRMT5-inhibtor/mRNA in DMSo-treated cells. (TIF) Click here for additional data file.

[4] = single replicate, vs control, actin-normalised

| mode of inhibition with regard to SAM (PRMT5) | mode of inhibition with regard to the SmD3 substrate (PRMT5; double-reciprocal plot) | SMILES | average tumor size (tumor area mean) in control mice relative to treated mice ([1]; 3 weeks) [fold] | effect on growth of mice (body weight) ([1]; 21 days) | arginine methylation in histone H2A in lung tumors [2] | EXPRESSION FOLD CHANGE avg BTG2 ([3]; average) | EXPRESSION FOLD CHANGE avg FGFR1 ([3]; average) | EXPRESSION FOLD CHANGE avg FOXO3 ([3]; average) | EXPRESSION FOLD CHANGE avg GLIPR1 ([3]; average) | EXPRESSION FOLD CHANGE avg PTTG1 ([3]; average) | EXPRESSION FOLD CHANGE avg TIGAR ([3]; average) | EXPRESSION FOLD CHANGE BTG2 [3, 4] | EXPRESSION FOLD CHANGE FGFR1 [3, 4] | EXPRESSION FOLD CHANGE FOXO3 [3, 4] | EXPRESSION FOLD CHANGE GLIPR1 [3, 4] | EXPRESSION FOLD CHANGE PTTG1 [3, 4] | EXPRESSION FOLD CHANGE TIGAR [3, 4] |
| --- | --- | --- | --- | --- | --- | --- | --- | --- | --- | --- | --- | --- | --- | --- | --- | --- | --- |
| not competitive inhibitors | competitive inhibitors | CCn1c(=O)[nH]c2cc(C(=O)Nc3ccc(OC)cc3)ccc2c1=O [Compound C5] |  |  |  |  |  |  |  |  |  |  |  |  |  |  |  |
|  |  | Nc1cccc(Nc2ncnc3c2cnn3Cc2ccccc2)c1 [Compound C9a] | 7.2 | retarded growth of mice | significantly inhibited | 1.857 | 0.9076 | 1.441 | 6.032 | 1.0371 | 1.502 | 1.889 and 1.826 and 0.7777 | 0.9289 and 0.7185 and 1.075 | 1.695 and 1.429 and 1.452 | 5.777 and 6.772 and 5.548 | 0.9706 and 1.104 and 1.215 | 1.627 and 1.032 and 1.378 |
